This passage reports IC50 and EC50 results from US8178548B2, “Anti-infective agents and uses thereof” (priority 2007, dated 2012).

Broadly, the IC50 is the midpoint of a concentration-inhibition curve. High values mean weaker potency in that assay, low ones greater potency in that assay. In general, EC50 refers to the concentration giving half of the maximal effect.

In assay [1] the target is T1, HCV polymerase 1B (Δ21 NS5B, HCV Strain 1B BK) (Hepatitis C virus genotype 1b, UniProt P26663).
T1 construct: 20 to 50 nM Δ21 NS5B
T1 sequence (P26663 2420-2989, stated change not applied): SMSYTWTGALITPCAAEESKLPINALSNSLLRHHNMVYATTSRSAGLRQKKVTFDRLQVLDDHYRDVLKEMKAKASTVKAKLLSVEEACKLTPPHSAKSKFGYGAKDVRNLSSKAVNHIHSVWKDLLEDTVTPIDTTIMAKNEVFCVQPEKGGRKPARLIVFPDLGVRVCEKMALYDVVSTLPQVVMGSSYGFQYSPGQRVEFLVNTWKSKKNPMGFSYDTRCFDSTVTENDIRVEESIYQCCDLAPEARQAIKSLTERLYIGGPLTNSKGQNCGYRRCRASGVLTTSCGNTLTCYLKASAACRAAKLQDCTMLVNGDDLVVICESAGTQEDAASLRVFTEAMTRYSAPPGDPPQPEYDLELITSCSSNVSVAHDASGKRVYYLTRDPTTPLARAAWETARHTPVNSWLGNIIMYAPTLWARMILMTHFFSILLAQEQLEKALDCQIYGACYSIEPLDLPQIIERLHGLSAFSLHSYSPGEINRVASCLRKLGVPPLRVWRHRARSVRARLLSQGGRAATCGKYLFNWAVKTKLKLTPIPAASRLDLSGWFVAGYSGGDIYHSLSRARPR
Briefly: biochemical. An outline of the steps: (§1)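 Δ21 NS5B (20–50 nM) was preincubated with inhibitor, 60–125 μM GTP and 2 mM MnCl2 (pH 7.4) for 15 min at RT. RNA synthesis on 5 nM template with 20 μM CTP/ATP and 1 μM ³H-UTP ran 2–4 h at RT. Spermine-precipitated RNA was filter-counted, and IC50 was fit with a tight-binding equation.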

In assay [2] the target is T2, HCV polymerase 1A (Δ21 NS5B, H77) (Hepatitis C virus genotype 1a, UniProt P27958).
T2 construct: 20 to 50 nM Δ21 NS5B
T2 sequence (P27958 2421-2990, stated change not applied): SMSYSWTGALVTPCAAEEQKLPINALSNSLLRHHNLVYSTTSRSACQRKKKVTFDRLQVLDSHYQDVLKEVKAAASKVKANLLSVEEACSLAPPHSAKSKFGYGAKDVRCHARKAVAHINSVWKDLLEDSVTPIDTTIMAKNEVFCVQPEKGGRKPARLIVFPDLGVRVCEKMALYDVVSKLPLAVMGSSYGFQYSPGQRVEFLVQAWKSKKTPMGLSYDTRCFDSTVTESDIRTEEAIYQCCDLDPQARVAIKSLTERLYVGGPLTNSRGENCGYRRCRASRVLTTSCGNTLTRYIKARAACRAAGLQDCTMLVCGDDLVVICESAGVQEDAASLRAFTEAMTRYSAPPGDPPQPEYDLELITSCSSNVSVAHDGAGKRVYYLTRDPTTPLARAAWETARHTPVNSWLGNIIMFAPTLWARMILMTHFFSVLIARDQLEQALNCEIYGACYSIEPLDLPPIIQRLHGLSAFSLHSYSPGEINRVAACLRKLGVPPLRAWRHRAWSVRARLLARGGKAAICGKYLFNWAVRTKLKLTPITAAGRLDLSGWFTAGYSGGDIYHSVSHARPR
Briefly: biochemical. The method, boiled down: as §1

In assay [3] the test system is genotype 1b-Con1 subgenomic replicon cell line. Description: HCV Polymerase Replicon Assay, genotype 1b-Con1 (luciferase reporter). The class given is cell-based. To be noted: Hepatitis C virus, 72 h, read-out: EC50 1b. (In general: In antiviral work, replicon cells carry a viral genome segment that copies itself.)
In assay [4] the test system is genotype 1a-H77 subgenomic replicon cell line. Briefly: HCV Polymerase Replicon Assay, genotype 1a-H77 (luciferase reporter). The class given is cell-based. The conditions noted are these: Hepatitis C virus, 72 h, read-out: EC50 1a.
[5] abbreviates: replicon 1b-Con1, luciferase, three days.
The mark [6] stands for this setting: replicon 1a-H77, luciferase, three days.

Read-outs that look alike come from different tables or passages of the source. Where only a bound is given, the exact number is not on record here.

For `COc1c(/C=C/c2ccc(N)cc2)cc(N2CCC(=O)NC2=O)cc1C(C)(C)C` [IA-L1-1.13, (E)-1-(3-(4-aminostyryl)-5-tert-butyl-4-methoxyphenyl)dihydropyrimidine-2,4(1H,3H)-dione], the half-inhibitory concentration (IC50) in assay [1] and in assay [2] was 0.1 to 1 µM each time. Besides, the 50% effective concentration (EC50) is 0.1 to 1 µM in assay [3] and above 1 µM in assay [4].

For the compound `CC(C)(C)c1cc(CCc2ccc(NS(C)(=O)=O)cc2)cc(N2CCC(=O)NC2=O)c1` [IA-L5-2-1.2, N-(4-(3-tert-butyl-5-(2,4-dioxotetrahydropyrimidin-1(2H)-yl)phenethyl)phenyl)methane sulfonamide], the IC50 in assay [1] and in assay [2] was 0.01 to 0.1 µM throughout. The EC50 in assay [3] (setting [5]) and in assay [4] (setting [6]) was 0.1 to 1 µM in each case.

`COc1c(/C=C/c2ccc(NS(C)(=O)=O)cc2NC(=O)OC(C)(C)C)cc(-n2ccc(=O)[nH]c2=O)cc1C(C)(C)C` [IB-L1-1.32, (E)-tert-butyl 2-(3-tert-butyl-5-(2,4-dioxo-3,4-dihydropyrimidin-1(2H)-yl)-2-methoxystyryl)-5-(methylsulfonamido)phenylcarbamate]: the IC50 in assay [1] and in assay [2] was 0.1 to 1 µM throughout. Besides, the results for the EC50 in assay [3] and in assay [4] were 0.01 to 0.1 µM and 0.1 to 1 µM, respectively.

In the case of `COc1c(/C=C(\Cl)c2ccc([N+](=O)[O-])cc2)cc(N2CCC(=O)NC2=O)cc1C(C)(C)C` [IA-L1-1.23, 1-{3-tert-butyl-5-[(Z)-2-chloro-2-(4-nitro-phenyl)-vinyl]-4-methoxy-phenyl}-dihydropyrimidine-2,4-dione], the concentration for half-maximal inhibition (IC50) in assay [1] and in assay [2] was 0.1 to 1 µM in each case. Moreover, the EC50 in assay [3] and in assay [4] was above 1 µM in each case.

As to `COc1c(/C=C/c2ccccc2)cc(N2CCC(=O)NC2=O)cc1C(C)(C)C` [IA-L1-1.18, (E)-1-(3-tert-butyl-4-methoxy-5-styrylphenyl)dihydro-pyrimidine-2,4(1H,3H)-dione], the IC50 in assay [1] and in assay [2] was 0.1 to 1 µM throughout. For the same compound, the EC50 in assay [3] and in assay [4] was 0.1 to 1 µM in each case.

In the case of `CCOC(=O)c1cc(NS(C)(=O)=O)ccc1/C=C/c1cc(-n2ccc(=O)[nH]c2=O)cc(C(C)(C)C)c1OC` [IB-L1-1.11, 2-{(E)-2-[3-tert-Butyl-5-(2,4-dioxo-3,4-dihydro-2H-pyrimidin-1-yl)-2-methoxy-phenyl]-vinyl}-5-methanesulfonylamino-benzoic acid ethyl ester], the values for the IC50 in assay [1] and in assay [2] were 0.01 to 0.1 µM and below 0.01 µM, respectively. For the same compound, the EC50 in assay [3] is below 0.01 µM; in assay [4], 0.01 to 0.1 µM.

`COc1c(/C=C/c2ccc(NS(C)(=O)=O)cc2)cc(-n2ccc(=O)[nH]c2=O)cc1-c1ccsc1` [IB-L1-1.47, (E)-N-(4-(5-(2,4-dioxo-3,4-dihydropyrimidin-1(2H)-yl)-2-methoxy-3-(thiophen-3-yl)styryl)phenyl)methanesulfonamide]: the IC50 in assay [1] and in assay [2] was 0.01 to 0.1 µM in each case. Further, the EC50 in assay [3] (setting [5]) fell in the range of 0.01 to 0.1 µM; in assay [4] (setting [6]), 0.1 to 1 µM.

`COc1c(C2CC2c2ccc(NS(C)(=O)=O)cc2)cc(N2CCC(=O)NC2=O)cc1C(C)(C)C` (centres unmarked) [IA-L8-1.1, N-(4-(2-(3-tert-butyl-5-(2,4-dioxotetrahydropyrimidin-1(2H)-yl)-2-methoxyphenyl)cyclopropyl)phenyl)methanesulfonamide]: the IC50 in assay [1] and in assay [2] was 0.1 to 1 µM each time. Moreover, the half-maximal effective concentration (EC50) in assay [3] (setting [5]) and in assay [4] (setting [6]) was 0.1 to 1 µM each time.
